According to US12391697B2, “Condensed bi-heterocycles as inhibiting agents for Bruton's tyrosine kinase” (BIOGEN MA INC., priority 2019, dated 2025):

target: BTK (Homo sapiens (Human), UniProt Q06187); test: In Vitro BTK Kinase Assay: Btk-PolyGAT-LS Assay; type: biochemical; details: active BTK enzyme 0.25 nM, ATP 10 μM, polyGAT 100 nM, 30 minutes
How it was run: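 Recombinant BTK (0.25 nM) phosphorylating 100 nM polyGAT at 10 μM ATP in Tris-HCl pH 7.5 buffer with MgCl2, DTT, Triton X-100 and casein, 30 min, then EDTA stop.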

BTK, sequence (Q06187 whole entry): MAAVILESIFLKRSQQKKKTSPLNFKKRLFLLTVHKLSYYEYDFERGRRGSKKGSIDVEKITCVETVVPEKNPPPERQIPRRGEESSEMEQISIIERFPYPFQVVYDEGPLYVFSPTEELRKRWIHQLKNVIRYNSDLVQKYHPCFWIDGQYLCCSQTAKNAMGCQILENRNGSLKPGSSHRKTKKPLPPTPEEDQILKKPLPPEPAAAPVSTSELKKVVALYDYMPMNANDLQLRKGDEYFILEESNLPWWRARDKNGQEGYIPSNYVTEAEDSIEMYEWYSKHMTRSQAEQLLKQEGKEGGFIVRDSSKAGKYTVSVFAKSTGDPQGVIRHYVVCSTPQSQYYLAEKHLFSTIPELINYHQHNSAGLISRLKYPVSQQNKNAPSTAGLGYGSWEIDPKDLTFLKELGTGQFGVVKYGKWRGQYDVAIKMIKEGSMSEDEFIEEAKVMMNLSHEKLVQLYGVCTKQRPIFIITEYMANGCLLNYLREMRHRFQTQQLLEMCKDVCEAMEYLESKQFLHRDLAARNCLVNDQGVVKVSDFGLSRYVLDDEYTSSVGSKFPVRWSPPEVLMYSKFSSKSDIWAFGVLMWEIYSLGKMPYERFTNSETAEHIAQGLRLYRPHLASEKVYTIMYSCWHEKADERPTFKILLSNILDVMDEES

| SMILES | IC50 [nM] |
| --- | --- |
| CC(C)(C)c1noc(C(=O)NCc2ccc(-c3ncnn4cc(N5CCOCC5)cc34)cc2Cl)n1 [Example 159] | ≤ 1 |
| CC(C)(C)n1cc(C(=O)NCc2ccc(-c3ncnn4cc(N5CCOCC5)cc34)cc2Cl)cn1 [Example 160] | ≤ 1 |
| CC(C)(C)c1nnc(C(=O)NCc2ccc(-c3ncnn4cc(N5CCOCC5)cc34)cc2Cl)o1 [Example 161] | 1 to 10 |
| CC(C)(C)n1cc(C(=O)NCc2ccc(-c3ncnn4cc(N5CCOCC5)cc34)cc2Cl)nn1 [Example 162] | 1 to 10 |
| CC(C)(C)c1nnc(C(=O)NCc2ccc(-c3ncnn4cc(N5CCOCC5)cc34)c(F)c2C2CC2)o1 [Example 163] | 1 to 10 |
| CC(C)(C)n1cc(C(=O)NCc2ccc(-c3ncnn4cc(N5CCOCC5)cc34)c(F)c2C2CC2)nn1 [Example 164] | 1 to 10 |
| Cc1cc(-c2ncnn3cc(-c4cnn(C)c4)cc23)ccc1CNC(=O)c1nnc(C(C)(C)C)o1 [Example 165] | ≤ 1 |
| Cc1cc(-c2ncnn3cc(-c4cnn(C)c4)cc23)ccc1CNC(=O)c1cn(C(C)(C)C)nn1 [Example 166] | ≤ 1 |
| Cc1cc(-c2ncnn3cc(-c4cnn(C)c4)cc23)ccc1CNC(=O)c1cnn(C(C)(C)C)c1 [Example 167] | ≤ 1 |
| Cc1cc(-c2ncnn3cc(-c4cnn(C)c4)cc23)ccc1CNC(=O)c1ccn(C(C)(C)C)n1 [Example 168] | ≤ 1 |
| Cc1cc(-c2ncnn3cc(-c4cccnc4)cc23)ccc1CNC(=O)c1noc(C(C)(C)C)n1 [Example 169] | ≤ 1 |
| Cc1cc(-c2cc3c(-c4ccc(CNC(=O)c5noc(C(C)(C)C)n5)c(C)c4)ncnn3c2)cnn1 [Example 170] | ≤ 1 |
| Cc1cc(-c2cc3c(-c4ccc(CNC(=O)c5nc(C(C)(C)C)no5)c(C)c4)ncnn3c2)cnn1 [Example 171] | ≤ 1 |
| Cc1cc(-c2ncnn3cc(-c4cnsc4)cc23)ccc1CNC(=O)c1noc(C(C)(C)C)n1 [Example 172] | > 10 |
| Cc1cc(-c2ncnn3cc(-c4cnsc4)cc23)ccc1CNC(=O)c1nc(C(C)(C)C)no1 [Example 173] | ≤ 1 |
| COCCN(C)c1cc2c(-c3ccc(CNC(=O)c4noc(C(C)(C)C)n4)c(C)c3)ncnn2c1 [Example 174] | ≤ 1 |
| Cc1cc(-c2ncnn3cc(N4CCOCC4)cc23)ccc1CNC(=O)c1ccn(C(C)(C)C)n1 [Example 175] | 1 to 10 |
| Cc1cc(-c2ncnn3cc(N4CCOCC4)cc23)ccc1CNC(=O)c1coc(C(C)(C)C)n1 [Example 176] | 1 to 10 |
| Cc1cc(-c2ncnn3cc(N4CCN(C)C(=O)C4)cc23)ccc1CNC(=O)c1noc(C(C)(C)C)n1 [Example 177] | ≤ 1 |
| CC(C)(C)c1nc(C(=O)NCc2ccc(-c3ncnn4cccc34)cc2Cl)no1 [Example 178] | 1 to 10 |
| CC(C)(C)c1nc(C(=O)NCc2ccc(-c3ncnn4cccc34)cc2C(F)(F)F)no1 [Example 179] | 1 to 10 |
| COc1c(CNC(=O)c2noc(C(C)(C)C)n2)ccc(-c2ncnn3cccc23)c1F [Example 180] | 1 to 10 |
| CC(C)(C)c1nc(C(=O)NCc2ccc(-c3ncnn4cccc34)cc2C(F)F)no1 [Example 181] | 1 to 10 |
| Cc1cc(-c2ncnn3cccc23)ccc1CNC(=O)c1ccn(C(C)(C)C)n1 [Example 182] | > 10 |
| Cc1cc(-c2ncnn3cccc23)ccc1CNC(=O)c1cnn(C(C)(C)C)c1 [Example 183] | 1 to 10 |
| Cc1cc(-c2ncnn3cccc23)ccc1CNC(=O)c1cn(C(C)(C)C)nn1 [Example 184] | > 10 |
| Cc1cc(-c2ncnn3cccc23)ccc1CNC(=O)c1nnc(C(C)(C)C)o1 [Example 185] | > 10 |

| SMILES | IC50 [nM] |
| --- | --- |
| CC(C)(C)c1noc(C(=O)NCc2ccc(-c3ncnn4cc(N5CCOCC5)cc34)cc2C(F)(F)F)n1 [Example 186] | ≤ 1 |
| CC(C)(C)n1cc(C(=O)NCc2ccc(-c3ncnn4cc(N5CCOCC5)cc34)cc2C(F)(F)F)nn1 [Example 187] | ≤ 1 |
| COc1cc(-c2ncnn3cc(-c4cnn(C)c4)cc23)ccc1CNC(=O)c1cn(C(C)(C)C)nn1 [Example 188] | 1 to 10 |
| COc1cc(-c2ncnn3cc(-c4cnn(C)c4)cc23)ccc1CNC(=O)c1nc(C(C)(C)C)no1 [Example 189] | ≤ 1 |
| Cn1cc(-c2cc3c(-c4ccc(CNC(=O)c5nc(C(C)(C)C)no5)c(C(F)F)c4)ncnn3c2)cn1 [Example 190] | ≤ 1 |
| Cn1cc(-c2cc3c(-c4ccc(CNC(=O)c5nnc(C(C)(C)C)o5)c(C(F)F)c4)ncnn3c2)cn1 [Example 191] | ≤ 1 |
| CC(C)(C)c1noc(C(=O)NCc2ccc(-c3ncnn4cc(N5CCOCC5)cc34)cc2C(F)F)n1 [Example 192] | ≤ 1 |
| CC(C)(C)c1nnc(C(=O)NCc2ccc(-c3ncnn4cc(N5CCOCC5)cc34)cc2C(F)F)o1 [Example 193] | 1 to 10 |
| Cn1cc(-c2cc3c(-c4ccc(CNC(=O)c5nc(C(C)(C)C)no5)c(C(F)F)c4F)ncnn3c2)cn1 [Example 194] | ≤ 1 |
| Cn1cc(-c2cc3c(-c4ccc(CNC(=O)c5cn(C(C)(C)C)nn5)c(C(F)F)c4F)ncnn3c2)cn1 [Example 195] | 1 to 10 |
| Cn1cc(-c2cc3c(-c4ccc(CNC(=O)c5nnc(C(C)(C)C)o5)c(C(F)F)c4F)ncnn3c2)cn1 [Example 196] | ≤ 1 |
| COc1cc(-c2ncnn3cc(-c4cnn(C)c4)cc23)ccc1CNC(=O)c1nnc(C(C)(C)C)o1 [Example 197] | 1 to 10 |
| CC(C)(C)c1nc(C(=O)NCc2ccc(-c3ncnn4cc(N5CCOCC5)cc34)cc2C(F)F)co1 [Example 198] | ≤ 1 |
| CC(C)(C)c1nnc(C(=O)NCc2ccc(-c3ncnn4cc(N5CCOCC5)cc34)c(F)c2C(F)F)o1 [Example 199] | 1 to 10 |
| COc1c(CNC(=O)c2cn(C(C)(C)C)nn2)ccc(-c2ncnn3cc(-c4cnn(C)c4)cc23)c1F [Example 200] | 1 to 10 |
| COc1c(CNC(=O)c2nnc(C(C)(C)C)o2)ccc(-c2ncnn3cc(-c4cnn(C)c4)cc23)c1F [Example 201] | 1 to 10 |
| COc1c(CNC(=O)c2ccn(C(C)(C)C)n2)ccc(-c2ncnn3cc(N4CCOCC4)cc23)c1F [Example 202] | 1 to 10 |
| COc1c(CNC(=O)c2nc(C(C)(C)C)no2)ccc(-c2ncnn3cc(N4CCOCC4)cc23)c1F [Example 203] | ≤ 1 |
| C[C@@H](NC(=O)c1nnc(C(C)(C)C)o1)c1ccc(-c2ncnn3cc(N4CCOCC4)cc23)cc1Cl [Example 204] | 1 to 10 |
| CC(C)(C)n1cc(C(=O)NCc2ccc(-c3ncnn4cc(N5CCOCC5)cc34)cc2C2CC2)nn1 [Example 205] | 1 to 10 |
| CC(C)(C)c1noc(C(=O)NCc2ccc(-c3ncnn4cc(N5CCOCC5)cc34)cc2C2CC2)n1 [Example 206] | ≤ 1 |
| Cn1cc(-c2cc3c(-c4ccc(CNC(=O)c5nc(C(C)(C)C)no5)c(CC(F)F)c4)ncnn3c2)cn1 [Example 207] | ≤ 1 |
| CC(C)(C)n1cc(C(=O)NCc2ccc(-c3ncnn4cc(C5=CCOCC5)cc34)cc2C(F)F)cn1 [Example 208] | ≤ 1 |
| CC(C)(C)n1cc(C(=O)NCc2ccc(-c3ncnn4cc(-c5cnn(CC(F)F)c5)cc34)cc2C(F)F)cn1 [Example 209] | ≤ 1 |
| CC(C)(C)c1nc(C(=O)NCc2ccc(-c3ncnn4cc(-c5cnn(CC(F)F)c5)cc34)cc2C(F)F)co1 [Example 210] | ≤ 1 |
| Cn1cc(-c2cc3c(-c4ccc(CNC(=O)c5coc(C(C)(C)C)n5)c(C(F)F)c4)ncnn3c2)cn1 [Example 211] | ≤ 1 |
